Structures are written as SMILES. Calls of active or inactive are those of the source. No cut-off for these calls is given here.

The test system of the first data set is Escherichia coli. Put plainly: Agonist activity at quorum sensing system in Escherichia coli NM522 carrying Vibrio fischeri luxR and luxICDBE promoter region assessed as bioluminescence production after 4 to 5 hrs by luminometer.
Settings: not given
`CCCCCCCC(O)C1=CCOC1=O` (centres undefined): the outcome was inactive.

Turning to `CCCC(O)C1=C/C(=C/Br)OC1=O` (centres undefined), the outcome was inactive.

With `C=C1C=C(CCCC)C(=O)O1`, the outcome was inactive.

Regarding `C=C1C=C(C(O)CCCCC)C(=O)O1` (centres undefined), the outcome was inactive.

On to `CCCCC1=CCOC1=O`, for which the outcome was inactive.

As for `CCCCCC(O)C1=CCOC1=O` (centres undefined), the outcome was inactive.

Turning to `CCCCCCC1=C/C(=C/Br)OC1=O`, the result was inactive.

As for `CCCCC1=C/C(=C/Br)OC1=O`, the outcome was inactive.

For the compound `CCCCCCC1=CCOC1=O`, the outcome was inactive.

As for `CCCCCCCC(O)C1=C/C(=C/Br)OC1=O` (centres undefined), the result was inactive.

Take `CCCCCC(O)C1=C/C(=C/Br)OC1=O` (centres undefined): the result was inactive.

On to `C=C1C=C(CCCCCC)C(=O)O1`, for which the outcome was inactive.

As for `CCCC(O)C1=CCOC1=O` (centres undefined), the outcome was inactive.

On to `CCCC(O)C1=C/C(=C\Br)OC1=O` (centres undefined), for which the result was inactive.

With `C=C1C=C(C(O)CCC)C(=O)O1` (centres undefined), the outcome was inactive.

`C=C1C=C(C(O)CCCCCCC)C(=O)O1` (centres undefined): the outcome was inactive.

The test system of the next data set is Escherichia coli. Put plainly: Growth inhibition of Escherichia coli NM522 carrying Vibrio fischeri luxR and luxICDBE promoter region at 20 uM to 20 mM after overnight incubation by disk diffusion assay. In kind it is organism-based. Conditions: in vivo. Background: A growth-free zone around the sample is the usual read-out of agar diffusion tests.
On to `CCCCC1=C/C(=C/Br)OC1=O`, for which the Activity result is listed as “Non-toxic”.

Tested on in the next data set: not listed separately
Put plainly: (§1) Antagonist activity at quorum sensing system in Escherichia coli NM522 carrying Vibrio fischeri luxR and luxICDBE promoter region assessed as inhibition of 3-oxo-C6HSL induced bioluminescence production after 4 to 5 hrs by luminometer.
Settings: not given
Usually IC50 stands for the midpoint of a concentration-inhibition curve. As to `CCCC(O)C1=C/C(=C/Br)OC1=O` (centres undefined), the half-maximal inhibitory concentration (IC50) stood at 14 µM.

For the compound `C=C1C=C(CCCC)C(=O)O1`, the IC50 is over 200 µM.

On to `C=C1C=C(C(O)CCCCC)C(=O)O1` (centres undefined), for which the half-maximal inhibitory concentration (IC50) is 8 µM.

With `CCCCC1=CCOC1=O`, the IC50 was over 200 µM.

For `CCCCCCC1=C/C(=C/Br)OC1=O`, the IC50 amounted to 3 µM.

As to `CCCCC1=C/C(=C/Br)OC1=O`, the half-inhibitory concentration (IC50) was determined as 0.6 µM.

Regarding `CCCCCCC1=CCOC1=O`, the IC50 is over 200 µM.

On to `CCCCCCCC(O)C1=C/C(=C/Br)OC1=O` (centres undefined), for which the half-maximal inhibitory concentration (IC50) came to 25 µM.

Regarding `CCCCCC(O)C1=C/C(=C/Br)OC1=O` (centres undefined), the concentration for half-maximal inhibition (IC50) is 6 µM.

In the case of `CCCCC1=C(Br)/C(=C/Br)OC1=O`, the IC50 is 45 µM.

Regarding `C=C1C=C(CCCCCC)C(=O)O1`, the 50% inhibitory concentration (IC50) is over 200 µM.

Take `CCCC(O)C1=C/C(=C\Br)OC1=O` (centres undefined): the IC50 was 18 µM.

Take `C=C1C=C(C(O)CCC)C(=O)O1` (centres undefined): the IC50 came to 52 µM.

As for `C=C1C=C(C(O)CCCCCCC)C(=O)O1` (centres undefined), the IC50 was found to be 15 µM.

The test system of the next data set is Escherichia coli. The data set is described as §1.
Settings: not given
For the compound `CCCCCCCC(O)C1=CCOC1=O` (centres undefined), the inhibition entry was “inactive”.

Consider `CCCCCC(O)C1=CCOC1=O` (centres undefined), for which the inhibition entry was “inactive”.

As to `CCCC(O)C1=CCOC1=O` (centres undefined), the inhibition entry is “inactive”.

Source of the values: ChEMBL document CHEMBL3132788, “A new route towards fimbrolide analogues: importance of the exomethylene motif in LuxR dependent quorum sensing inhibition” (Medchemcomm, 2013).
